From US20220024891A1 (The Board of Regents of the University of Texas System, priority 2018, published 2022)

Columns and labels:
DLD1 tumors = experiment: Xenograft mouse model, DLD1 tumors; format: in vivo; settings: nude mice, 40 mg/kg intraperitoneally twice daily for 18 days
[1] = test system: colorectal tumors in CPC;Apc mice; experiment: Anti-tumor effects in CPC;Apc mice; format: in vivo, mouse; settings: 90 days' treatment
Experimental: These mice carry a CDX2P-NLS Cre recombinase transgene and a loxP-targeted Apc allele that deletes exon 14, leading to a frame shift at codon 580 and a truncated APC protein. […] Weights were measured every 15 days over the treatment period. These studies were performed according to the guidelines of the UT Southwestern Institutional Animal Care and Use Committee.

DLD-1 cells = experiment: Sensitivity of DLD-1 versus HCT-116 cells to EBP inhibitors; format: cell-based, human; settings: varying doses

Row | Structure (SMILES) | toxicity and body weights (DLD1 tumors) | body weight over treatment [1] | selective sensitivity of DLD-1 versus HCT-116 cells (DLD-1 cells)
1 | COc1ccc(S(=O)(=O)N2CCC(N3CCC(C)CC3)CC2)cc1 [TASIN-1] | no overt toxicity and no statistically significant differences were observed in the body weights | gained weight to a level similar to WT mice | 
2 | CC(C(O)c1ccc(O)cc1)N1CCC(Cc2ccccc2)CC1 (stereo not drawn) [Ifenprodil, ifenprodil] |  |  | selectively sensitive
